One may read the IC50 as the midpoint of a concentration-inhibition curve.

This assay addresses human recombinant ATX (Homo sapiens (Human), UniProt Q13822). Briefly: Autotaxin (ATX) activity Quanta Red assay. The format is biochemical. Particulars: 15 μM Rac-1-Palmitoyl-glycero-3-phosphocholine, 2 hours room temperature, determined in duplicate. Put shortly:
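Human recombinant ATX (0.8 μg/mL final) in 50 mM Tris-HCl pH 8.0, 5 mM CaCl2, 4% DMSO; 15 μM rac-1-palmitoyl-glycero-3-phosphocholine with HRP/choline oxidase-coupled Quanta Red, 2 h at room temperature.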
`CN1CCC(C(=O)NCc2ccc(N3CC(C(=O)Nc4nnc(CCc5ccc(Cl)cc5)s4)CC3=O)cc2)CC1` (stereo not drawn) [Compound F184, 1-Methyl-piperidine-4-carboxylic acid 4-(4-{5-[2-(4-chloro-phenyl)-ethyl]-[1,3,4]thiadiazol-2-ylcarbamoyl}-2-oxo-pyrrolidin-1-yl)-benzylamide]: the IC50 amounted to 45 nM.
As for `O=C(Nc1nnc(CCC2CCCO2)s1)[C@H]1CC(=O)N(c2ccc(CN3CCOCC3)cc2)C1` (stereo partly drawn) [Compound F186, (3S)-1-[4-(morpholinomethyl)phenyl]-5-oxo-N-[5-(2-tetrahydrofuran-2-ylethyl)-1,3,4-thiadiazol-2-yl]pyrrolidine-3-carboxamide], the figure is 134 nM.
Turning to `O=C(Nc1ncc(COC2CCCCC2)s1)C1CC(=O)N(c2ccc(CN3CCOCC3)cc2)C1` (stereo not drawn) [Compound F187, N-[5-(cyclohexoxymethyl)thiazol-2-yl]-1-[4-(morpholinomethyl)phenyl]-5-oxo-pyrrolidine-3-carboxamide], the 50% inhibitory concentration (IC50) worked out at 163 nM.
`O=C(Nc1nnc(CCC2CCOCC2)s1)C1CC(=O)N(c2ccc(CN3CCCCC3)cc2)C1` (stereo not drawn) [Compound F189, 5-oxo-1-[4-(1-piperidylmethyl)phenyl]-N-[5-(2-tetrahydropyran-4-ylethyl)-1,3,4-thiadiazol-2-yl]pyrrolidine-3-carboxamide]: the IC50 stood at 487 nM.
As for `O=C(Nc1nnc(CCC2CCOCC2)s1)[C@H]1CC(=O)N(c2ccc(CN3CCCCC3)cc2)C1` [Compound F190, (3S)-5-oxo-1-[4-(1-piperidylmethyl)phenyl]-N-[5-(2-tetrahydropyran-4-ylethyl)-1,3,4-thiadiazol-2-yl]pyrrolidine-3-carboxamide], the IC50 worked out at 526 nM.
For `O=C(Nc1nnc(CCC2CCCO2)s1)[C@H]1CC(=O)N(c2ccc(CN3CCCCC3)cc2)C1` (stereo partly drawn) [Compound F191, (3S)-5-oxo-1-[4-(1-piperidylmethyl)phenyl]-N-[5-(2-tetrahydrofuran-2-ylethyl)-1,3,4-thiadiazol-2-yl]pyrrolidine-3-carboxamide], the IC50 stood at 615 nM.
With `Cn1nc(NC(=O)C2CC(=O)N(c3ccc(CN4CCOCC4)cc3)C2)cc1CCc1ccc(Cl)cc1` (stereo not drawn) [Compound F192, N-[5-[2-(4-chlorophenyl)ethyl]-1-methyl-pyrazol-3-yl]-1-[4-(morpholinomethyl)phenyl]-5-oxo-pyrrolidine-3-carboxamide], the IC50 was 773 nM.
Take `O=C(NC1CC(=O)N(c2ccc(CN3CCCCC3)cc2)C1)c1nnc(CCc2ccccc2)o1` (stereo not drawn) [Compound F194, N-[5-oxo-1-[4-(1-piperidylmethyl)phenyl]pyrrolidin-3-yl]-5-(2-phenylethyl)-1,3,4-oxadiazole-2-carboxamide]: the IC50 was 649 nM.
With `O=C(NC1CC(=O)N(c2ccc(CN3CCCCC3)cc2)C1)c1nnc(CCc2ccco2)s1` (stereo not drawn) [Compound F195, 5-[2-(2-furyl)ethyl]-N-[5-oxo-1-[4-(1-piperidylmethyl)phenyl]pyrrolidin-3-yl]-1,3,4-thiadiazole-2-carboxamide] the figure was 766 nM; with `O=C(NC1CC(=O)N(c2ccc(CN3CCCCC3)cc2)C1)c1nnc(NCc2ccc(Cl)cc2)s1` (stereo not drawn) [Compound F196, 5-[(4-chlorophenyl)methyl-amino]-N-[5-oxo-1-[4-(1-piperidylmethyl)phenyl]pyrrolidin-3-yl]-1,3,4-thiadiazole-2-carboxamide], 103 nM; with `O=C(NC1CC(=O)N(c2ccc(CN3CCCCC3)cc2)C1)c1ncc(CCc2ccccc2)s1` (stereo not drawn) [Compound F197, N-[5-oxo-1-[4-(1-piperidylmethyl)phenyl]pyrrolidin-3-yl]-5-(2-phenylethyl)thiazole-2-carboxamide], 465 nM.
Take `O=C(NC1CC(=O)N(c2ccc(CN3CCCCC3)cc2)C1)c1cc(CCc2ccccc2)no1` (stereo not drawn) [Compound F198, N-[5-oxo-1-[4-(1-piperidylmethyl)phenyl]pyrrolidin-3-yl]-3-(2-phenylethyl)isoxazole-5-carboxamide]: the IC50 was 989 nM.

These data come from patent US10138230B2, “Autotaxin inhibitors” (CANCER RESEARCH TECHNOLOGY LIMITED, priority 2015, dated 2018).
